The results in this text go back to paper PMC8119899, “A Single Mutation in the Outer Lipid-Facing Helix of a Pentameric Ligand-Gated Ion Channel Affects Channel Function Through a Radially-Propagating Mechanism” (Frontiers in Molecular Biosciences, 2021).

The structures appear in SMILES notation. Positions count from the first letter of the chain named.

Assay type in all cases: cell-based
For assay [1], the target named is T1, 5-HT3A receptor S297A (Mus musculus, UniProt P23979, S324A).
T1 construct: expressed in transfected cells; host or cells: HEK293
T1 sequence (P23979 24-489 S324A): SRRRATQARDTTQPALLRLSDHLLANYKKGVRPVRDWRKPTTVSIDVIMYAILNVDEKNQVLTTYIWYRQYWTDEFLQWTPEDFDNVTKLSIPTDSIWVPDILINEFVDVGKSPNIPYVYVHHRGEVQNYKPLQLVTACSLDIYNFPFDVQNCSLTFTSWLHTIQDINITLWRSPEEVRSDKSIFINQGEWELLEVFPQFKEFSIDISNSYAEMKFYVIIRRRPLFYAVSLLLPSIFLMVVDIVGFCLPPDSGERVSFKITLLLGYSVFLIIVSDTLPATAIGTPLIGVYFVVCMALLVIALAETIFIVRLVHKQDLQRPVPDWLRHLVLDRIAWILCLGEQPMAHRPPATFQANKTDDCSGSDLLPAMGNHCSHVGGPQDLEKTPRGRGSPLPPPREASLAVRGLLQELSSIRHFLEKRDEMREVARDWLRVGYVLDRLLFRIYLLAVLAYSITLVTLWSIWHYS
The assay is described as follows: FlexStation membrane potential dye, 5-HT response, S297A receptor in HEK293 cells. To be noted: mean and SEM, n ≥ 3. As to the method:
(§1) The mouse 5-HT3A cDNA (Q6J1J7) in pcDNA3.1 (for HEK cell transfection) or pGEMHE (for RNA production) was modified by QuikChange site-directed mutagenesis (Agilent Technologies) to create point mutants (verified by sequencing).
(§2) Human embryonic kidney (HEK) 293 cells were maintained at 37 °C at 5% CO2 in a humidified atmosphere, in Dulbecco's Modified Eagle's Medium/Nutrient Mix F12 (1:1) (Invitrogen, Paisley, UK) with GlutaMAX^TM and 10% fetal bovine serum (GE Healthcare) (DMEM/FBS) and passaged when confluent.
(§3) As described previously (Price and Lummis, [2005]) cells were incubated for 45 min with fluorescent membrane potential-sensitive dye (Membrane Potential Blue kit, Molecular Devices) diluted in Flex buffer (10 mM HEPES, 115 mM NaCl, 1 mM KCl, 1 mM CaCl2, 1 mM MgCl2, and 10 mM glucose, pH 7.4), and subsequently assayed at room temperature for 180 s, with readings every 2 s. […] (log of the concentration of ligand), a is the minimum response, b is the maximum response, and nH is the Hill slope.

Assay [2] addresses T2, 5-HT3A receptor K255L (Mus musculus, UniProt P23979, K282L).
T2 construct: expressed in transfected cells
T2 sequence (P23979 24-489 K282L): T1 sequence (P23979 24-489 S324A) with K259L, A301S
The assay is described as follows: FlexStation membrane potential dye, 5-HT response, K255L receptor in HEK293 cells. Details: key: Mutants that did not respond in the functional assay are marked as non functional (NF). The protocol:
as §1
Human embryonic kidney (HEK) 293 cells were maintained at 37 °C at 5% CO2 in a humidified atmosphere, in Dulbecco's Modified Eagle's Medium/Nutrient Mix F12 (1:1) (Invitrogen, Paisley, UK) with GlutaMAX^TM and 10% fetal bovine serum (GE Healthcare) (DMEM/FBS) and passaged when confluent. Five micrograms of WT or mutant 5-HT3A DNA and 30 μl polyethyleneamine (Polysciences) incubated for 10 min in 1 mL DMEM was added to 60% confluent HEK293 cells for transfection, and cells grown for 2 days before assays.
as §3

Assay [3] addresses T3, 5-HT3A receptor K255Q (Mus musculus, UniProt P23979, K282Q).
T3 construct: expressed in transfected cells; host or cells: Xenopus laevis oocytes (cRNA injection)
T3 sequence (P23979 24-489 K282Q): T1 sequence (P23979 24-489 S324A) with K259Q, A301S
As to the kind of experiment: FlexStation membrane potential dye, 5-HT response, K255Q receptor in HEK293 cells. To be noted: mean and SEM, n ≥ 3. The protocol: as §1, §2, §3

The target of assay [4] is T4, 5-HT3A receptor K255A (Mus musculus, UniProt P23979, K282A).
T4 sequence (P23979 24-489 K282A): T1 sequence (P23979 24-489 S324A) with K259A, A301S
The assay is described as follows: FlexStation membrane potential dye, 5-HT response, K255A receptor in HEK293 cells. Set-up: expressed in transfected cells; host or cells: HEK293. To be noted: mean and SEM, n ≥ 3. As to the method: as §1, §2, §3

`NCCc1c[nH]c2ccc(O)cc12` [5-HT]: the nH in assay [1] is 3.5 ± 0.8; in assay [3], 1.9± 0.2; in assay [4], 2.6± 0.1. Further, the pEC50 result in assay [2] is on record as “NF”.
